Laboratory results published in US8133913B2, “Substituted indeno [1,2-b]indole derivatives as novel inhibitors of protein kinase CK2 and their use as tumor therapeutic agents, cytostatics and diagnostic aids” (Heinrich-Heine Universitat Dusseldof, priority 2006, dated 2012).

Key:
5637 = assay: Proliferation of tumor cell lines (Bracht et al.); assay type: cell-based; settings: for activity at 20 µM: 5637, tested at 20 μM
KYSE-70 = assay: Proliferation of tumor cell lines (Bracht et al.); assay type: cell-based; settings: Homo sapiens; for activity at 20 µM: KYSE-70, tested at 20 μM
SISO = assay: Proliferation of tumor cell lines (Bracht et al.); assay type: cell-based; settings: for activity at 20 µM: tested at 20 μM
[1] = molecular target: T1, human CK2 protein kinase (holoenzyme) (Homo sapiens, UniProt P68400); assay: Inhibition of recombinant human CK2 protein kinase (holoenzyme), radiometric filter assay with peptide […]; assay type: biochemical; settings: for inhibition at 10 µM: 10 μM compound, DMSO control = 100% CK2 activity, at least three independent experiments; for IC50: concentration range 30 μM to 0.01 μM, 100 μM ATP in assay buffer
T1 construct: made in house; host or cells: E. coli BL21(DE3), pT7-7 or bicistronic pET11d-CK2α, β

RT-4 = assay: Proliferation of tumor cell lines (Bracht et al.); assay type: cell-based; settings: Homo sapiens, read-out: IC50 (μM) Mean, inhibition of cell proliferation
A427 = assay: Proliferation of tumor cell lines (Bracht et al.); assay type: cell-based; settings: Homo sapiens, A-427, read-out: IC50 (μM) Mean, inhibition of cell proliferation
LCLC = assay: Proliferation of tumor cell lines (Bracht et al.); assay type: cell-based; settings: read-out: IC50 (μM) Mean, inhibition of cell proliferation
MCF-7 = assay: Proliferation of tumor cell lines (Bracht et al.); assay type: cell-based; settings: Homo sapiens, MCF7, read-out: IC50 (μM) Mean, inhibition of cell proliferation
DAN-G = assay: Proliferation of tumor cell lines (Bracht et al.); assay type: cell-based; settings: read-out: IC50 (μM) Mean, inhibition of cell proliferation
CK2 = settings: known CK2 inhibitors, investigated predominantly on the rat enzyme; cited from earlier work

T1 sequence (P68400 whole entry): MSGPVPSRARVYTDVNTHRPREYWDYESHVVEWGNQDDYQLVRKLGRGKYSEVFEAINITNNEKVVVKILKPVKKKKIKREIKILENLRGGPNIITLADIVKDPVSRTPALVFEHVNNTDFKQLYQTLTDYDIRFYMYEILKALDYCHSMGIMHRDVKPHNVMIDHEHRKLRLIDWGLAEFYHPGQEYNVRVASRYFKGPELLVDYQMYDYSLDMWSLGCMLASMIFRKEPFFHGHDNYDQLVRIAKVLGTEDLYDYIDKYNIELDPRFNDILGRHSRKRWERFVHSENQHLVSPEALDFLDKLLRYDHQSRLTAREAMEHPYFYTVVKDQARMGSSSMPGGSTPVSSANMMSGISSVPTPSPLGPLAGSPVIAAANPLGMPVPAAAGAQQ
T1 sequence (P67870 whole entry partner): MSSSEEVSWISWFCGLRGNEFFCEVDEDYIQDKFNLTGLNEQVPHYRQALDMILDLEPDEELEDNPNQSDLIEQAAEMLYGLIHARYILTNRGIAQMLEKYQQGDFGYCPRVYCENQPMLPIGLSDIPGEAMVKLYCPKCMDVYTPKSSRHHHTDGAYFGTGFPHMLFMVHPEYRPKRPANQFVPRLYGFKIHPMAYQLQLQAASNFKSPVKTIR

## COc1ccc(CCn2c3c(c4c2-c2ccccc2C4=O)C(=O)CCC3)cc1OC (hydrate or solvate) [Compound 4j, 5-[2-(3,4-Dimethoxyphenyl)ethyl]-5,6,7,8-tetrahydroindeno[1,2-b]indole-9,10-dione]
other
  melting point: 189 to 190 °C

## CC(c1ccccc1)n1c2c(c3c1-c1ccccc1C3=O)C(=O)CCC2 (racemic) [Compound 4f, DL-5-(1-phenylethyl)-5,6,7,8-tetrahydro-indeno[1,2-b]indole-9,10-dione]
5637; read-out: T/C (%) Mean
  activity at 20 µM: 64.9%
KYSE-70; read-out: T/C (%) Mean
  activity at 20 µM: 62.3%
other
  melting point: 201 °C
SISO; read-out: T/C (%) Mean
  activity at 20 µM: 95.8%
[1]
  inhibition at 10 µM: 66%

## O=C1CCCc2[nH]c3c(c21)C(=O)c1ccccc1-3 [Compound 4a, 5,6,7,8-Tetrahydroindeno[1,2-b]indole-9,10-dione]
5637; read-out: T/C (%) Mean
  activity at 20 µM: 80.9%
KYSE-70; read-out: T/C (%) Mean
  activity at 20 µM: 77.5%
other
  melting point: 332 to 333 °C
SISO; read-out: T/C (%) Mean
  activity at 20 µM: 99.9%

## O=C1CCCc2c1c1c(n2Cc2ccccc2)-c2ccccc2C1=O [Compound 4c, 5-Benzyl-5,6,7,8-tetrahydroindeno[1,2-b]indole-9,10-dione]
5637; read-out: T/C (%) Mean
  activity at 20 µM: 53.6%
KYSE-70; read-out: T/C (%) Mean
  activity at 20 µM: 65.8%
other
  melting point: 185 °C
SISO; read-out: T/C (%) Mean
  activity at 20 µM: 86.4%

## O=C1CCCc2c1c1c(n2CCc2ccccc2)-c2ccccc2C1=O [Compound 4d, 5-Phenethyl-5,6,7,8-tetrahydro-indeno[1,2-b]indole-9,10-dione]
RT-4
  IC50: > 20 µM
A427
  IC50: > 20 µM
5637; read-out: T/C (%) Mean
  activity at 20 µM: 48%
5637; 5637, read-out: IC50 (μM) Mean, inhibition of cell proliferation
  IC50: 10.7 µM
LCLC
  IC50: 5.66 µM
MCF-7
  IC50: 6.53 µM
KYSE-70; KYSE-70, read-out: IC50 (μM) Mean, inhibition of cell proliferation
  IC50: > 20 µM
KYSE-70; read-out: T/C (%) Mean
  activity at 20 µM: 67.5%
DAN-G
  IC50: > 20 µM
SISO; read-out: IC50 (μM) Mean, inhibition of cell proliferation
  IC50: 12.3 µM
SISO; read-out: T/C (%) Mean
  activity at 20 µM: 65.5%
[1]
  inhibition at 10 µM: 67%
  IC50: 0.82 µM

## O=C1CCCc2c1c1c(n2-c2ccccc2)-c2ccccc2C1=O [Compound 4g, 5-Phenyl-5,6,7,8-tetrahydroindeno[1,2-b]indole-9,10-dione]
5637; 5637, tested at 10 μM (**), read-out: T/C (%) Mean
  activity at 10 µM: 86.3%
KYSE-70; KYSE-70, tested at 10 μM (**), read-out: T/C (%) Mean
  activity at 10 µM: 81.8%
SISO; tested at 10 μM (**), read-out: T/C (%) Mean
  activity at 10 µM: 101%
[1]
  inhibition at 10 µM: 60%
  IC50: 1.44 µM

## COc1ccc(Cn2c3c(c4c2-c2ccccc2C4=O)C(=O)CCC3)cc1 [Compound 4i, 5-(4-Methoxybenzyl)-5,6,7,8-tetrahydro-indeno[1,2-b]indole-9,10-dione]
5637; read-out: T/C (%) Mean
  activity at 20 µM: 78.2%
KYSE-70; read-out: T/C (%) Mean
  activity at 20 µM: 79.2%
other
  melting point: 198 to 199 °C
SISO; read-out: T/C (%) Mean
  activity at 20 µM: 93.6%

## COc1ccc(CCn2c3c(c4c2-c2ccccc2C4=O)C(=O)CCC3)cc1OC [Compound 4j, 5-[2-(3,4-Dimethoxyphenyl)ethyl]-5,6,7,8-tetrahydroindeno[1,2-b]indole-9,10-dione]
5637; read-out: T/C (%) Mean
  activity at 20 µM: 101%
KYSE-70; read-out: T/C (%) Mean
  activity at 20 µM: 91.5%
SISO; read-out: T/C (%) Mean
  activity at 20 µM: 105%

## COC(=O)C1C(=O)c2c([nH]c3c2C(=O)c2ccccc2-3)CC1C (stereo not shown) [Compound 4l, Methyl 7-methyl-9,10-dioxo-5,6,7,8,9,10-hexahydroindeno[1,2-b]indole-8-carboxylate]
5637; read-out: T/C (%) Mean
  activity at 20 µM: 79.1%
KYSE-70; read-out: T/C (%) Mean
  activity at 20 µM: 98.8%
other
  melting point: 287 °C
SISO; read-out: T/C (%) Mean
  activity at 20 µM: 104%

## O=C1CC(c2ccccc2)Cc2c1c1c(n2Cc2ccccc2)-c2ccccc2C1=O (stereo not shown) [Compound 4n, 5-Benzyl-7-phenyl-5,6,7,8-tetrahydro-indeno[1,2-b]indole-9,10-dione]
5637; read-out: T/C (%) Mean
  activity at 20 µM: 39.4%
KYSE-70; read-out: T/C (%) Mean
  activity at 20 µM: 75.2%
SISO; read-out: T/C (%) Mean
  activity at 20 µM: 80.9%

## CC1CC(=O)c2c3c(n(CCc4ccccc4)c2C1)-c1ccccc1C3=O (stereo not shown) [Compound 4p, 7-Methyl-5-phenethyl-5,6,7,8-tetrahydro-indeno[1,2-b]indole-9,10-dione]
5637; read-out: T/C (%) Mean
  activity at 20 µM: 49.8%
KYSE-70; read-out: T/C (%) Mean
  activity at 20 µM: 72.1%
SISO; read-out: T/C (%) Mean
  activity at 20 µM: 96.3%

## CC(C)n1c2c(c3c(O)cccc31)C(=O)c1ccccc1-2 [Compound 5b, 9-Hydroxy-5-isopropyl-5H-indeno[1,2-b]indol-10-one]
5637; read-out: T/C (%) Mean
  activity at 20 µM: 77.5%
KYSE-70; read-out: T/C (%) Mean
  activity at 20 µM: 77.6%
SISO; read-out: T/C (%) Mean
  activity at 20 µM: 104%

## O=c1ccc(=O)c2c1c1c(=O)c3ccccc3c1n2CCc1ccccc1 [Compound 6d, 5-Phenethyl-5H-indeno[1,2-b]indole-6,9,10-trione]
5637; 5637, tested at 5 μM (*), read-out: T/C (%) Mean
  activity at 5 µM: 69.7%
KYSE-70; KYSE-70, tested at 5 μM (*), read-out: T/C (%) Mean
  activity at 5 µM: 92%
SISO; tested at 5 μM (*), read-out: T/C (%) Mean
  activity at 5 µM: 87.2%
[1]
  inhibition at 10 µM: 70%
  IC50: 5.74 µM

## CN(C)CCn1c2c(c3c1-c1ccccc1C3=O)C(=O)CCC2 [Example 11, 5-(2-Dimethylaminoethyl)-5,6,7,8-tetra-hydroindeno[1,2-b]indole-9,10-dione]
other
  melting point: 178 °C

## O=C1CCCc2c1c1c(n2CCCO)-c2ccccc2C1=O [Example 12, 5-(3-Hydroxypropyl)-5,6,7,8-tetrahydro-indeno[1,2-b]indole-9,10-dione]
other
  melting point: 241 °C

## O=C(O)Cn1c2c(c3c1-c1ccccc1C3=O)C(=O)CCC2 [Example 13, (9,10-Dioxo-6,8,9,10-tetrahydro-7H-indeno[1,2-b]indol-5-yl)acetic acid]
other
  melting point: 279 to 280 °C (dec.)

## O=C1CCCc2c1c1c(n2CCO)-c2ccccc2C1=O [Example 14, 5-(2-Hydroxyethyl)-5,6,7,8-tetrahydro-indeno[1,2-b]indole-9,10-dione]
other
  melting point: 262 to 263 °C

## CCOCCCn1c2c(c3c1-c1ccccc1C3=O)C(=O)CCC2 [Example 16, 5-Ethoxypropyl-5,6,7,8-tetrahydro-indeno[1,2-b]indole-9,10-dione]
other
  melting point: 129 °C

## COC(=O)C1C(=O)c2c3c(n(-c4ccccc4)c2CC1C)-c1ccccc1C3=O (stereo not shown) [Example 20, Methyl 7-methyl-9,10-dioxo-5-phenyl-5,6,7,8,9,10-hexahydroindeno[1,2-b]indole-8-carboxylate]
other
  melting point: 249 to 250 °C

## Cc1cc(O)c2c(c1)C(=O)c1cc(O)cc(O)c1C2=O [emodin]
CK2
  IC50: 2 µM
